Drawing on patent US20240109868A1, “EP300/CBP MODULATOR, PREPARATION METHOD THEREFOR AND USE THEREOF” (Miracure Biotechnology Limited, priority 2022, published 2024), this text covers IC50 for 36 compounds.

Where only a bound is given, the exact number is not on record here.

In the assay the test system is 22Rv1 Cell. The assay is described as follows: 22RV1 cell growth inhibition, CellTiter-Glo, 72 h. Conditions: Homo sapiens, 22Rv1, 72 h, 22RV1 cells, 72 h culture. Type of assay: cell-based. As for the experimental part: 22RV1 or vCap cells were cultured in RPMI-1640 medium (10% fetal bovine serum and 100 units (per mL) of penicillin/streptomycin dual antibody were added to RPMI-1640) in a 37° C., 5% CO2 cell incubator. Cells at the logarithmic growth phase were inoculated onto a 96-well cell culture plate at 5×10^3 cells/100 μL/well and cultured overnight. Solutions of different concentrations of an active compound in DMSO were added, with the final concentration being 0.5% DMSO. The positive control was 1% TweeN2O, and the negative control was 0.5% DMSO. After 72 h of culture, an equal volume of CellTiter-Glo was added to each well, and the mixtures were mixed homogeneously by shaking for 2 min. The plate was let stand at room temperature for 10 min, and fluorescence signal values were read using a microplate reader. Data were analyzed using Prism 7.0 and graphs were generated. The values are shown as mean f SEM (N=2). […] The X-axis represents compound concentration (μM), and the Y-axis represents % inhibition.
A general note: In ATP-based viability assays light output follows the ATP content of the culture.

In the case of `CC(=O)N1Cc2cc(C3CCN(CC(C)O)C(=O)C3)cc(Nc3cc(C(F)F)c(-c4cnn(C)c4)cc3F)c2C1` (stereo not drawn) [Compound M001241], the half-maximal inhibitory concentration (IC50) (as a rule, the concentration at which inhibition is half-maximal) is over 1000 nM.

On to `CC(=O)N1Cc2cc(C3CCN(CCF)C(=O)C3)cc(N3CCCc4cc(-c5cnn(C)c5)c(C(F)F)cc43)c2C1` (stereo not drawn) [Compound M001250], for which the 50% inhibitory concentration (IC50) was over 1000 nM.

`COC(=O)N1CCc2cc(C3CCOCC3)cc(N3CCCc4cc(-c5cnn(C)c5)c(C(F)F)cc43)c2C1` [Compound M001270] had a half-inhibitory concentration (IC50) of over 1000 nM.

`CC(=O)N1Cc2cc([C@H]3CC[C@H](N(C)C)CC3)cc(N3CCCc4cc(-c5cnn(C)c5)c(C(F)F)cc43)c2C1` [Compound M001312] had an IC50 of over 1000 nM.

`COC(=O)N1CCc2cc(C3CCC(OC)CC3)cc(N3CCCc4cc(-c5cnn(C)c5)c(C(F)F)cc43)c2C1` (stereo not drawn) [Compound M001271] had a 50% inhibitory concentration (IC50) of over 1000 nM.

`CC(=O)N1Cc2cc(C3CCC(=O)N(C)C3)cc(N3CCCc4cc(-c5cn(C)nc5C(=O)N(C)C)c(C(F)F)cc43)c2C1` (stereo not drawn) [Compound M001227] showed a concentration for half-maximal inhibition (IC50) of over 1000 nM.

In the case of `CNC(=O)N1CCc2cc(C3CCC(=O)N(C)C3)cc(Nc3cc(C(F)F)c(-c4cnn(C)c4)cc3F)c2C1` (stereo not drawn) [Compound M001232, 8-((5-(difluoromethyl)-2-fluoro-4-(1-methyl-1H-pyrazol-4-yl)phenyl)amino)-N-methyl-6-(1-methyl-6-oxopiperidin-3-yl)-3,4-dihydroisoquinoline-2(1H)-carboxamide], the IC50 is over 1000 nM.

`CNC(=O)N1CCc2cc(C3CCN(S(C)(=O)=O)CC3)cc(N3CCCc4cc(-c5cnn(C)c5)c(C(F)F)cc43)c2C1` [Compound M001306]: the 50% inhibitory concentration (IC50) was over 1000 nM.

On to `CNC(=O)N1CCc2cc(-c3ccn(C4CCC(=O)NC4=O)c(=O)c3)cc(N3CCCc4cc(-c5cnn(C)c5)c(C(F)F)cc43)c2C1` (stereo not drawn) [Compound M001300, 8-(7-(difluoromethyl)-6-(1-methyl-1H-pyrazol-4-yl)-3,4-dihydroquinolin-1(2H)-yl)-6-(1-(2,6-dioxopiperidin-3-yl)-2-oxo-1,2-dihydropyridin-4-yl)-N-methyl-3,4-dihydroisoquinoline-2(1H)-carboxamide], for which the IC50 was over 1000 nM.

Consider `CNC1CCC(c2cc3c(c(N4CCCc5cc(-c6cnn(C)c6)c(C(F)F)cc54)c2)CN(C(C)=O)C3)CC1` (stereo not drawn) [Compound M001302], for which the 50% inhibitory concentration (IC50) was over 1000 nM.

In turn, `CC(=O)N1Cc2cc(C3CCN(CCO)C(=O)C3)cc(N3CCCc4cc(-c5cnn(C)c5)c(C(F)F)cc43)c2C1` (stereo not drawn) [Compound M001247] showed a 50% inhibitory concentration (IC50) of over 1000 nM.

`CC(=O)N1Cc2cc(C3COC(=O)N(C)C3)cc(N3CCCc4cc(-c5cnn(C)c5)c(C(F)F)cc43)c2C1` (stereo not drawn) [Compound M001238] came in with a concentration for half-maximal inhibition (IC50) of over 1000 nM.

Regarding `CC(=O)N1Cc2cc(C3CCC(=O)N(CC(C)O)C3)cc(N3CCCc4cc(-c5cnn(C)c5)c(C(F)F)cc43)c2C1` (stereo not drawn) [Compound M001226], the concentration for half-maximal inhibition (IC50) is over 1000 nM.

With `CNC(=O)N1CCc2cc(C3CCN(CCO)C(=O)C3)cc(N3CCCc4cc(-c5cnn(C)c5)c(C(F)F)cc43)c2C1` (stereo not drawn) [Compound M001248], the IC50 was over 1000 nM.

In turn, `CNC(=O)N1CCc2cc(C3CCN(CC(C)O)C(=O)C3)cc(Nc3cc(C(F)F)c(-c4cnn(C)c4)cc3F)c2C1` (stereo not drawn) [Compound M001240] showed an IC50 of over 1000 nM.

`CC(=O)N1Cc2cc(C3CCC(=O)N(CCF)C3)cc(N3CCCc4cc(-c5cnn(C)c5)c(C(F)F)cc43)c2C1` (stereo not drawn) [Compound M001257] showed an IC50 of over 1000 nM.

`CC(=O)N1Cc2cc([C@H]3CC[C@@H](NS(C)(=O)=O)CC3)cc(N3CCCc4cc(-c5cnn(C)c5)c(C(F)F)cc43)c2C1` [Compound M001305]: the IC50 was under 1000 nM.

With `CC(=O)N1Cc2cc([C@H]3CC[C@H](NS(C)(=O)=O)CC3)cc(N3CCCc4cc(-c5cnn(C)c5)c(C(F)F)cc43)c2C1` [Compound M001309], the concentration for half-maximal inhibition (IC50) was under 1000 nM.

`CCN1CCN(c2cc3c(c(N4CCCc5cc(-c6cnn(C)c6)c(C(F)F)cc54)c2)CN(C(C)=O)C3)CC1=O` [Compound M001262] gave an IC50 of over 1000 nM.

`CNC(=O)N1CCc2cc(C3CCC(=O)N(CC(C)O)C3)cc(N3CCCc4cc(-c5cnn(C)c5)c(C(F)F)cc43)c2C1` (stereo not drawn) [Compound M001223] registered an IC50 of over 1000 nM.

`CC(=O)N1Cc2cc([C@H]3CC[C@@H](N(C)C)CC3)cc(N3CCCc4cc(-c5cnn(C)c5)c(C(F)F)cc43)c2C1` [Compound M001303] displayed an IC50 of over 1000 nM.

On to `CNC(=O)N1CCc2cc(C3CCN(CCF)C(=O)C3)cc(N3CCCc4cc(-c5cnn(C)c5)c(C(F)F)cc43)c2C1` (stereo not drawn) [Compound M001251], for which the IC50 was over 1000 nM.

As to `CC(=O)N1Cc2cc(C3CCCNC3=O)cc(N3CCCc4cc(-c5cnn(C)c5)c(C(F)F)cc43)c2C1` (stereo not drawn) [Compound M001258], the concentration for half-maximal inhibition (IC50) is over 1000 nM.

In turn, `CN[C@H]1CC[C@H](c2cc3c(c(N4CCCc5cc(-c6cnn(C)c6)c(C(F)F)cc54)c2)CN(C(C)=O)C3)CC1` [Compound M001311] yielded a 50% inhibitory concentration (IC50) of over 1000 nM.

Regarding `CNC(=O)N1CCc2cc([C@H]3CC[C@H](N)CC3)cc(N3CCCc4cc(-c5cnn(C)c5)c(C(F)F)cc43)c2C1` [Compound M001319], the IC50 is over 1000 nM.

`CC(=O)N1Cc2cc(C3CCN(O)CC3)cc(N3CCCc4cc(-c5cnn(C)c5)c(C(F)F)cc43)c2C1` [Compound M001277] gave an IC50 of over 1000 nM.

Compound `CNC(=O)N1CCc2cc(C3CCC(=O)N(CCF)C3)cc(N3CCCc4cc(-c5cnn(C)c5)c(C(F)F)cc43)c2C1` (stereo not drawn) [Compound M001256] yielded a 50% inhibitory concentration (IC50) of over 1000 nM.

In turn, `CNC(=O)N1CCc2cc(C3CCN(CC(F)F)C(=O)C3)cc(N3CCCc4cc(-c5cnn(C)c5)c(C(F)F)cc43)c2C1` (stereo not drawn) [Compound M001255] came in with a concentration for half-maximal inhibition (IC50) of under 1000 nM.

On to `CC(=O)N1Cc2cc(C3CCC(=O)N(C)C3)cc(Nc3cc(C(F)F)c(-c4cnn(C)c4)cc3F)c2C1` (stereo not drawn) [Compound M001233], for which the IC50 is over 1000 nM.

Compound `CNC(=O)N1CCc2cc(C3CCN(C4CCC(=O)NC4=O)C(=O)C3)cc(N3CCCc4cc(-c5cnn(C)c5)c(C(F)F)cc43)c2C1` (stereo not drawn) [Compound M001287] gave an IC50 of over 1000 nM.

Take `CNC(=O)N1CCc2cc([C@H]3CC[C@@H](NC(C)=O)CC3)cc(N3CCCc4cc(-c5cnn(C)c5)c(C(F)F)cc43)c2C1` [Compound M001316]: the 50% inhibitory concentration (IC50) was over 1000 nM.

With `CNC(=O)N1CCc2cc([C@H]3CC[C@@H](N)CC3)cc(N3CCCc4cc(-c5cnn(C)c5)c(C(F)F)cc43)c2C1` [Compound M001318], the IC50 was over 1000 nM.

`CNC(=O)N1CCc2cc([C@H]3CC[C@H](NC(C)=O)CC3)cc(N3CCCc4cc(-c5cnn(C)c5)c(C(F)F)cc43)c2C1` [Compound M001317] registered an IC50 of over 1000 nM.

In the case of `CNC(=O)N1CCc2cc(C3CCN(O)CC3)cc(N3CCCc4cc(-c5cnn(C)c5)c(C(F)F)cc43)c2C1` [Compound M001276, 8-[7-(difluoromethyl)-6-(1-methylpyrazol-4-yl)-3,4-dihydro-2H-quinolin-1-yl]-6-(1-hydroxypiperidin-4-yl)-N-methyl-3,4-dihydro-1H-isoquinoline-2-carboxamide], the IC50 is over 1000 nM.

As for `CC(=O)N1Cc2cc(C3CCN(CC(F)F)C(=O)C3)cc(N3CCCc4cc(-c5cnn(C)c5)c(C(F)F)cc43)c2C1` (stereo not drawn) [Compound M001254], the 50% inhibitory concentration (IC50) was under 1000 nM.

Compound `CC(=O)N[C@H]1CC[C@@H](c2cc3c(c(N4CCCc5cc(-c6cnn(C)c6)c(C(F)F)cc54)c2)CN(C(C)=O)C3)CC1` [Compound M001308] registered an IC50 of under 1000 nM.
